Data reported in PMC6470523, “Introduction of Nonacidic Side Chains on 6-Ethylcholane Scaffolds in the Identification of Potent Bile Acid Receptor Agonists with Improved Pharmacokinetic Properties” (Molecules, 2019).
In brackets after ≈: the same amount, converted by molar mass.

Columns and labels:
[1] = Aqueous solubility measurement (PBS pH 7.4, LC-MS); assay type: physicochemical; settings: aqueous buffer, kinetic from dmso stock; aqueous solubility at pH 7.4 (PBS), 24 h room temperature
Method: (§1) Chromatography was performed using an Alliance pump system coupled to a Q-ToF Premiere (Waters Co., Milford, MA, USA). The mixture was separated on a Luna 5 µm C8(2) 100° A 150 × 2 mm from Phenomenex. The mobile phase consisted of 0.2% formic acid (FA) in water as solvent A and 0.2% FA in acetonitrile as solvent B at a flow rate of 200 μL/min. The gradient was as follows: 0–2 min (70% A and 30% B), 2–20 min (5% A and 95% B), 20–30 min (70% A and 30% B). The detection of analytes was achieved by electrospray ionization (ESI) in the positive mode with the appropriate MS/MS transitions, if necessary.
Ten microliters of a 10 mM solution in DMSO of each compound was diluted either in 490 μL of PBS pH 7.4 or in organic solvent MeOH (in triplicate). The tubes were gently shaken 24 h at room temperature, then centrifuged for 5 min at 4000 rpm. 10 microliters of sample were diluted in 490 μL of MeOH. The solubility is determined by the ratio of mass signal area PBS/organic solvent.

[2] = Liver microsomal stability; assay type: in vitro ADME, mouse; settings: liver microsomes; for microsomal CLint at 1 µM / half-life at 1 µM: male, CD-1, mouse, pH 7.4, 1 μM compound, 37 °C; for half-life at 1 µM: read-out: t½
Method: as §1
Male mouse (CD-1) liver microsomes (Sigma-Aldrich, St. Louis, MO, USA) were used. All incubations were performed in duplicate in a shaking water bath at 37 °C. The incubation mixtures contained 1 μM compound with 1% DMSO used as a vehicle, mouse liver microsomes (0.3 mg of microsomal protein per mL), 5 mM MgCl2, 1 mM NADP, 5 mM glucose 6-phosphate, 0.4 U·mL^−1 glucose 6-phosphate dehydrogenase, and 50 mM potassium phosphate buffer (pH 7.4) in a final volume of 0.5 mL. Aliquots were removed at 0, 5, 10, 20, 30, and 40 min after microsome addition and the reaction was stopped by adding 200 μL of ice-cold acetonitrile. After two hours, the samples were centrifuged for 10 min at 10,000 rpm, and the supernatants were transferred in matrix tubes for LC-MS/MS analysis. LC-MS/MS analysis were carried out setting the m/z window around the value of the MH^+ of the unmodified compounds.
Propranolol, known as a high hepatic clearance drug in rodents, was used as a quality-control compound for the microsomal incubations. The slope of the linear regression of the curve obtained reporting the natural logarithm of compound area versus incubation time (−k) was used in the conversion to in vitro t1/2 values by t1/2 = −ln(2)/k. In vitro intrinsic clearance (Clint expressed as μL/min/mg) was calculated according to the following formula: Clint = volume of reaction (µL)/t1/2(min)/protein of liver microsomes (mg). The percentage of unmodified compound has been calculated assuming the area of the compound peak at time 0 min as 100%.

SHP mRNA in HepG2 cells = assay: RT-PCR of FXR target gene SHP mRNA in HepG2 cells; assay type: cell-based, human; settings: 1 and 10 µM, 18 h, vs CDCA 10 µM, Figure 2B
Method: (§2) HepG2 and GLUTag cells were plated at 1 × 10^6 cells/well in a six well plate. […] Total RNA was isolated from cells using the TRIzol reagent according to the manufacturer's specifications (Invitrogen, Carlsbad, CA, USA). One microgram of purified RNA was treated with DNase-I and reverse transcribed with Superscript II (Invitrogen, Carlsbad, CA, USA). For Real Time PCR, 10 ng template was dissolved in 25 μL containing 200 nmol/L of each primer and 12.5 μL of 2× SYBR FAST Universal ready mix (Invitrogen, Carlsbad, CA, USA). All reactions were performed in triplicate, and the thermal cycling conditions were as follows: 2 min at 95 °C, followed by 40 cycles of 95 °C for 20 s and 60 °C for 30 s in StepOnePlus (Applied Biosystems, Foster City, CA, USA). The relative mRNA expression was calculated accordingly to the Ct method. Primers were designed using the software PRIMER31 using published data obtained from the NCBI database. Forward and reverse primer sequences were the following: human GAPDH, [NT]; human SHP, [NT]; mouse GAPDH, [NT]; mouse pro-glucagon, [NT]

[3] = system: pro-glucagon mRNA in GLUTag cells; assay: RT-PCR of GPBAR1 target gene pro-glucagon mRNA in GLUTag cells; assay type: cell-based, murine; settings: 1 and 10 µM, 18 h, Figure 2A
Method: as §2

human GPBAR1 = target: T1, human GPBAR1 (Homo sapiens, UniProt Q8TDU6); assay: GPBAR1 transactivation (CRE luciferase reporter) assay in HEK293T cells; assay type: cell-based; settings: for GPBAR1 Eff (%) vs 6-ECDCA: maximum efficacy of compound (10 µM) relative to 6-ECDCA (1 µM) set as 100, CRE transactivation; for GPBAR1 Eff (%) vs TLCA: maximum efficacy of compound (10 µM) relative to TLCA (10 μM) set as 100, CRE transactivation; for EC50: dose response 0.5 to 50 µM, 18 h
T1 construct: expressed in transfected cells; host or cells: HEK293T
T1 sequence (Q8TDU6 1-330): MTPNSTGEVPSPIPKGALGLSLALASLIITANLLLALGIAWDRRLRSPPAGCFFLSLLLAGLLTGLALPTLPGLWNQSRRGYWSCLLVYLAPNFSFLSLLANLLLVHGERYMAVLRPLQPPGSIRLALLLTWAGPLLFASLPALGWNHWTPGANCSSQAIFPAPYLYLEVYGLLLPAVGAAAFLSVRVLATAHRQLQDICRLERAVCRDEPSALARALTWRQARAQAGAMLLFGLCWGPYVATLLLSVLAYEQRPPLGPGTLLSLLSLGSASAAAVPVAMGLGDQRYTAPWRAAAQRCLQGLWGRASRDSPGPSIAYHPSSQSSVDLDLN
Method: (§3) To evaluate FXR mediated transactivation, HepG2 cells were transfected with 100 ng of human pSG5-FXR, 100 ng of human pSG5-RXR, 200 ng of the reporter vector p(hsp27)-TK-LUC containing the FXR response element IR1 cloned from the promoter of heat shock protein 27 (hsp27) and with 100 ng of pGL4.70 (Promega), a vector encoding the human Renilla gene. To evaluate GPBAR1 mediated transactivation, HEK293T cells were transfected with 200 ng of human pGL4.29 (Promega), a reporter vector containing a cAMP response element (CRE) that drives the transcription of the luciferase reporter gene luc2P, with 100 ng of pCMVSPORT6-human GPBAR1, and with 100 ng of pGL4.70. […] After treatments, 10 μL of cellular lysates were read using a Dual-Luciferase Reporter Assay System (Promega Italia srl, Milan, Italy) according manufacturer specifications using the Glomax20/20 luminometer (Promega Italia srl, Milan, Italy). Luciferase activities were assayed and normalized with Renilla activities.
(§4) At 18 h post stimulations, cellular lysates were assayed for luciferase and Renilla activities using the Dual-Luciferase Reporter Assay System (E1980, Promega Italia srl, Milan, Italy). Luminescence was measured using Glomax 20/20 luminometer (Promega Iralia srl, Milan, Italy). Luciferase activities were normalized with Renilla activities.

human FXR = target: T2, human FXR (Homo sapiens, UniProt Q96RI1); assay: FXR transactivation luciferase reporter assay in HepG2 cells; assay type: cell-based; settings: for EC50: dose response 0.5 to 50 µM, 18 h; for EC50 / FXR Eff (%) vs 6-ECDCA / FXR Eff (%) vs CDCA: HepG2 cells; for FXR Eff (%) vs 6-ECDCA: maximum efficacy of compound (10 µM) relative to 6-ECDCA (1 µM) set as 100%; for FXR Eff (%) vs 6-ECDCA / FXR Eff (%) vs CDCA: FRE transactivation; for FXR Eff (%) vs CDCA: maximum efficacy of compound (10 µM) relative to CDCA (10 μM) set as 100%; for FXR activity (in words): transactivation assay
T2 construct: expressed in transfected cells; host or cells: HepG2
T2 sequence (Q96RI1 1-486): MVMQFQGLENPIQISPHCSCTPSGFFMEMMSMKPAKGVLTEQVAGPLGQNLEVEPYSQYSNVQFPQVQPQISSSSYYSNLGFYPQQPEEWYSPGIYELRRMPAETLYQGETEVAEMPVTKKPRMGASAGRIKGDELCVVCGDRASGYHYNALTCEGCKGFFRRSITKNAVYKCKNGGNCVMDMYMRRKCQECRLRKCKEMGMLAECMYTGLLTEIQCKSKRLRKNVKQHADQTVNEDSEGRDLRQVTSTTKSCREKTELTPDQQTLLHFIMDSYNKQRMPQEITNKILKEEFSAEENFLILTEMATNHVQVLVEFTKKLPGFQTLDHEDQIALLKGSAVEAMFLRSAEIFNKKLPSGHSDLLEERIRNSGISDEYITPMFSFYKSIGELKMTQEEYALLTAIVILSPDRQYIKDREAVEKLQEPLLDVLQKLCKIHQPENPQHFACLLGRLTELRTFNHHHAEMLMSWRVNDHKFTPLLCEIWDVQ
T2 sequence (P19793 1-462 partner): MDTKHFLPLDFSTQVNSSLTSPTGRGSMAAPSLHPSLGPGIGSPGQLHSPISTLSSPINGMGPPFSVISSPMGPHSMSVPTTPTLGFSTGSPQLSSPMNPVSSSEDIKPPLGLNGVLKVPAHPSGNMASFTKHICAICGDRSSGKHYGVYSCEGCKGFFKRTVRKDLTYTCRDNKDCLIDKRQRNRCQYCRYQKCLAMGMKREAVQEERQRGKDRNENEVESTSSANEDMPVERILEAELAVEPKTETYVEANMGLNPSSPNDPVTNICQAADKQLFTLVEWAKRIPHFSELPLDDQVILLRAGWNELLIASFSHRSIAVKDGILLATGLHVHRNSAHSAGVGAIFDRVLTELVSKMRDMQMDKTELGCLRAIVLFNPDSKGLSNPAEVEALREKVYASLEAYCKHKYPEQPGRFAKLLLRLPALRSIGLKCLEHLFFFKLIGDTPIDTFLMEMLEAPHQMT
Method: as §3, §4

Structure (SMILES)	solubility at 24 h [1] [µM]	Percentage of compound remaining in solution after 40 min incubation [2] [%]	microsomal CLint at 1 µM [2] [µL/min/mg]	half-life at 1 µM [2] [h]	SHP mRNA expression (in words) (SHP mRNA in HepG2 cells)	pro-glucagon mRNA expression (in words) [3]	GPBAR1 Eff (%) vs 6-ECDCA (human GPBAR1) [%]	GPBAR1 Eff (%) vs TLCA (human GPBAR1) [%]	EC50 (human FXR) [µM]	FXR Eff (%) vs 6-ECDCA (human FXR) [%]	FXR Eff (%) vs CDCA (human FXR) [%]	EC50 (human GPBAR1) [µM]	FXR activity (in words) (human FXR)
CC[C@H]1[C@@H](O)[C@@H]2[C@H](CC[C@]3(C)[C@@H]([C@H](C)CCC(=O)O)CC[C@@H]23)[C@@]2(C)CC[C@@H](O)C[C@@H]12 [6-ECDCA, 6-ethylchenodeoxycholic acid, reference compound]	195 (≈ 82 µg/mL)	26.9	109	0.352	–	–	–	–	–	–	–	–	–
CCC1C(O)C2C3CCC(C(C)CO)C3(C)CCC2C2(C)CCCCC12 (stereo not drawn) [compound 6, 6α-Ethyl-7α-hydroxy-23,24-dinor-5β-cholan-22-ol]	162 (≈ 58.7 µg/mL)	79.2	19.7	1.96	more potent than CDCA	failed to regulate	87.5	19	13.7 ± 2.05	33.4	185	–	–
CCC1C(O)C2C3CCC(C(C)CO)C3(C)CCC2C2(C)CCC(O)CC12 (stereo not drawn) [compound 3, 6α-Ethyl-3α, 7α -dihydroxy-23,24-dinor-5β-cholan-22-ol]	210 (≈ 79.5 µg/mL)	60.6	36.6	1.05	–	–	243.4	55	2.8 ± 0.45	45	257	0.43 ± 0.015	–
C=CC(C)C1CCC2C3C(O)C(CC)C4CC(O)CCC4(C)C3CCC12C (stereo not drawn) [compound 1, 6α-Ethyl-3α, 7α-dihydroxy-24-nor-5β-chol-23-ene]	201 (≈ 75.3 µg/mL)	42.2	52.6	0.73	–	–	367.1	79	1.8 ± 0.5	45.6	252	0.14 ± 0.032	–
CCC(C)C1CCC2C3C(O)C(CC)C4CC(O)CCC4(C)C3CCC12C (stereo not drawn) [compound 2, 6α-Ethyl-3α, 7α -dihydroxy-24-nor-5β-cholane]	176 (≈ 66.3 µg/mL)	72.8	25	1.54	–	–	255.2	53	1.3 ± 0.12	46.5	249	1.5 ± 0.29	–
C=CC(C)C1CCC2C3C(O)C(CC)C4CCCCC4(C)C3CCC12C (stereo not drawn) [compound 4, 6α-Ethyl-7α-hydroxy-24-nor-5β-chol-23-ene]	–	–	–	–	–	–	68.8	15	–	3.1	17	–	inactive
CCC(C)C1CCC2C3C(O)C(CC)C4CCCCC4(C)C3CCC12C (stereo not drawn) [compound 5, 6α-Ethyl-7α-hydroxy-23,24-dinor-5β-cholane]	–	–	–	–	–	–	53.4	12	–	2.5	14	–	inactive
